Assay results from ChEMBL document CHEMBL1201862, “PubChem BioAssay data set” (2004).
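Protocol summary: plate cells (96-well), add compound at 5 concentrations, incubate 48 h, interpolate endpoints linearly. The concentration for 50% growth inhibition is given as GI50.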 Calls of active or inactive are those of the source. No stated cut-off is given here; in the data, active = GI50 up to about 1.1 µM and inactive = higher.

What was measured:
Assay in all cases: growth of human tumour cells (NCI), 48 h
MCF7 = system: MCF7
RXF 393 = system: RXF 393
TK-10 = system: TK-10
786-0 = system: 786-0
HL-60 = system: HL-60
T47D = system: T47D
M14 = system: M14
UACC-62 = system: UACC-62
ACHN = system: ACHN
SW-620 = system: SW-620
COLO 205 = system: COLO 205
SN12C = system: SN12C
NCI/ADR-RES = system: NCI/ADR-RES
U-251 = system: U-251
SNB-78 = system: SNB-78
HOP-18 = system: HOP-18
XF498 = system: XF498
DLD-1 = system: DLD-1
DMS-273 = system: DMS-273

SMILES	GI50 (MCF7)	GI50 (RXF 393)	GI50 (TK-10)	GI50 (786-0)	GI50 (HL-60)	GI50 (T47D)	GI50 (M14)	GI50 (UACC-62)	GI50 (ACHN)	GI50 (SW-620)	GI50 (COLO 205)	GI50 (SN12C)	GI50 (NCI/ADR-RES)	GI50 (U-251)	GI50 (SNB-78)	GI50 (HOP-18)	GI50 (XF498)	GI50 (DLD-1)	GI50 (DMS-273)
O=C(O)CNc1ccc(Cl)c(Cl)c1	13.9 µM (inactive)	35.3 µM (inactive)	20 µM (inactive)	24.7 µM (inactive)	24 µM (inactive)	15.6 µM (inactive)	27.4 µM (inactive)	28.1 µM (inactive)	20 µM (inactive)	23.9 µM (inactive)	18.5 µM (inactive)	32.7 µM (inactive)	28.6 µM (inactive)	31.1 µM (inactive)					
CN(C)CCNC(=O)c1cccc2[nH]c(-c3ccccn3)nc12	31.5 µM (inactive)	51.2 µM (inactive)			33.7 µM (inactive)			20.2 µM (inactive)		24.9 µM (inactive)	14 µM (inactive)	34.8 µM (inactive)	26.1 µM (inactive)	38.8 µM (inactive)	34.9 µM (inactive)	29 µM (inactive)	36.6 µM (inactive)	33.7 µM (inactive)	26 µM (inactive)
CCC(C)C1NC(=O)CNC(=O)C2Cc3c([nH]c4cc(O)ccc34)[S+]([O-])CC(NC(=O)CNC1=O)C(=O)NC(CC(=O)O)C(=O)N1CC(O)CC1C(=O)NC(C(C)C(O)CO)C(=O)N2 (centres undefined)	5.12 µM (inactive)	0.579 µM (active)			28.6 µM (inactive)			2.35 µM (inactive)		36.2 µM (inactive)	1.41 µM (inactive)	4.63 µM (inactive)	3.97 µM (inactive)	3.83 µM (inactive)	0.664 µM (active)	25.8 µM (inactive)	1.16 µM (inactive)	12.4 µM (inactive)	2.23 µM (inactive)
COc1ccc2oc(=N)c(C(=O)Nc3ccccc3)cc2c1	12.8 µM (inactive)	17.3 µM (inactive)	57.5 µM (inactive)	3.09 µM (inactive)		4.41 µM (inactive)	38.1 µM (inactive)		13.7 µM (inactive)	22 µM (inactive)	30.1 µM (inactive)	36.2 µM (inactive)	16.9 µM (inactive)	19.1 µM (inactive)					
C=CC(Cl)(CBr)CCC(Br)C(C)(C)Cl (centres undefined)	6.92 µM (inactive)	17.4 µM (inactive)	23.2 µM (inactive)	11.7 µM (inactive)	4.05 µM (inactive)	16.6 µM (inactive)	13.6 µM (inactive)	12.7 µM (inactive)	16.5 µM (inactive)	12.6 µM (inactive)	15.9 µM (inactive)	21.3 µM (inactive)	22.1 µM (inactive)	14.4 µM (inactive)					
CN(CCO)/N=N/c1n[nH]cc1C(N)=O	> 100 µM (inactive)	> 100 µM (inactive)			> 100 µM (inactive)			> 100 µM (inactive)		> 100 µM (inactive)	> 100 µM (inactive)	> 100 µM (inactive)	> 100 µM (inactive)	> 100 µM (inactive)	> 100 µM (inactive)	> 100 µM (inactive)	> 100 µM (inactive)	> 100 µM (inactive)	> 100 µM (inactive)
O=[N+]([O-])c1cccc2c1[nH]c1c(-c3ccccc3)nccc12	2.33 µM (inactive)	2.54 µM (inactive)			1.63 µM (inactive)			1.74 µM (inactive)		3.41 µM (inactive)	2.02 µM (inactive)	2.7 µM (inactive)	1.63 µM (inactive)	2.51 µM (inactive)		0.274 µM (active)	2.65 µM (inactive)	2.85 µM (inactive)	2.43 µM (inactive)
COC(=O)c1ccc(OCc2ccc3nc(OC)c(OC)nc3c2)cc1			> 100 µM (inactive)	> 100 µM (inactive)	> 100 µM (inactive)		> 100 µM (inactive)		> 100 µM (inactive)	> 100 µM (inactive)	> 100 µM (inactive)	> 100 µM (inactive)		49.1 µM (inactive)	> 100 µM (inactive)	> 100 µM (inactive)	> 100 µM (inactive)	> 100 µM (inactive)	> 100 µM (inactive)
